How the values were obtained:
c-Kit(V654A) = target: T1, c-Kit(V654A) (Homo sapiens, UniProt P10721, V654A); test: c-Kit(V654A) assay; type: biochemical; conditions: recombinant human c-Kit aa 544-end, 200 μM ATP, 1.4E-06 means 1.4×10^−6, read-out: Inhibition (IC50) of c-KIT (V654A)
T1 construct: amino acids 544-end containing the V654A mutation; GST (N)
In short: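 Radiometric filter-binding read-out: substrate 33P incorporation counted by scintillation after P30 filtermat washes in 75 mM phosphoric acid and methanol. Enzyme: N-GST recombinant human c-Kit aa 544-end carrying V654A.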

PDGFRalpha(V561D) = target: T2, PDGFRalpha(V561D) (Homo sapiens, UniProt P16234, V561D); test: PDGFRalpha(V561D) assay; type: biochemical; conditions: recombinant human PDGFRalpha aa 550-end, 200 μM ATP, 1.4E-06 means 1.4×10^−6, read-out: Inhibition (IC50) of PDGFRα (V561D)
T2 construct: recombinant human PDGFRalpha, amino acids 550end containing the V561 D mutation; 6His (N)
T2 sequence (P16234 550-1089 V561D): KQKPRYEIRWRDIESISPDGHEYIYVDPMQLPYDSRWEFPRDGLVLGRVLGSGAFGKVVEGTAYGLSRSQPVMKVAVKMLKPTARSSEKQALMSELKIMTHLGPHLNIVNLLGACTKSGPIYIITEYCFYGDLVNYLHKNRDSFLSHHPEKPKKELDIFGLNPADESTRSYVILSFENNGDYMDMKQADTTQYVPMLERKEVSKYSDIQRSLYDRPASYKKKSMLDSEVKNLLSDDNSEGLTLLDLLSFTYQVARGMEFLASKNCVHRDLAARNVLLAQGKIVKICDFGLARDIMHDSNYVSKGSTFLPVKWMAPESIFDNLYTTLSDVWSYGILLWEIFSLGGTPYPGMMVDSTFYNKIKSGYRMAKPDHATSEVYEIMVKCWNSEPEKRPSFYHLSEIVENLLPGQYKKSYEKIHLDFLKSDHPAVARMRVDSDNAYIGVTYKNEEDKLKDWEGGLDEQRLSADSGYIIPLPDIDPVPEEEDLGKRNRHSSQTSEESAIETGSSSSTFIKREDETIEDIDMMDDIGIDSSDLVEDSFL
In short: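 Radiometric filter-binding assay: substrate phosphorylation by recombinant N-His-tagged human PDGFRα 550-end V561D was quenched with 3% phosphoric acid after 40 min at room temperature, then counted.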

[1] = system: GISTs with primary mutation; conditions: secondary resistance emerges in almost all tumors; cited from earlier work

T1 sequence (P10721 544-976 V654A): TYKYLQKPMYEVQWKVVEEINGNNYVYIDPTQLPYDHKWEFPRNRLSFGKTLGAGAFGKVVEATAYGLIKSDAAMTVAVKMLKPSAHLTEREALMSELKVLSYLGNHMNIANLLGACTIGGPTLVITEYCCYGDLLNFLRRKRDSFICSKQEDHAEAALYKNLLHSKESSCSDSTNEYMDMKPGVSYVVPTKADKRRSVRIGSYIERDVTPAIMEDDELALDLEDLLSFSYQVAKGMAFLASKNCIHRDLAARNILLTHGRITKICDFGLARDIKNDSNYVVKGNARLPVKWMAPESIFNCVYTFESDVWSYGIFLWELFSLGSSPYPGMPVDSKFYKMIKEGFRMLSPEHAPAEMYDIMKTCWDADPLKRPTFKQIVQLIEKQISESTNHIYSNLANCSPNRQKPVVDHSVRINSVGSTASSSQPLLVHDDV

| SMILES | IC50 (c-Kit(V654A)) [nM] | IC50 (PDGFRalpha(V561D)) [nM] | initial response rate [1] [%] |
| --- | --- | --- | --- |
| CC(=O)N(C)c1ccc(-n2cc(-c3cc4cc(F)c(F)cc4[nH]c3=O)nn2)cc1 [A352, N-{4-[4-(6,7-difluoro-2-oxo-1,2-dihydro-quinolin-3-yl)-[1,2,3]triazol-1-yl]-phenyl}-N-methyl-acetamide] | 260 | 440 | – |
| CC(=O)N(C)c1ccc(-n2cc(-c3cc4cc(F)ccc4[nH]c3=O)nn2)cc1 [A353, N-{4-[4-(6-fluoro-2-oxo-1,2-dihydro-quinolin-3-yl)-[1,2,3]triazol-1-yl]-phenyl}-N-methyl-acetamide] | 94 | 190 | – |
| CN1Cc2cc(-n3cc(-c4cc5cc(F)ccc5[nH]c4=O)nn3)ccc2C1=O [A354, 6-fluoro-3-[1-(2-methyl-1-oxo-2,3-dihydro-1H-isoindol-5-yl)-1H-[1,2,3]triazol-4-yl]-1H-quinolin-2-one] | 3100 | 420 | – |
| CN1CC[C@@H](Oc2ccc(-n3cc(-c4cc5cc(F)ccc5[nH]c4=O)nn3)cc2)C1 [A367, 6-fluoro-3-{1-[4-((R)-1-methyl-pyrrolidin-3-yloxy)-phenyl]-1H-[1,2,3]triazol-4-yl}-1H-quinolin-2-one] | 19 | 70 | – |
| CN1CC[C@H](Oc2ccc(-n3cc(-c4cc5cc(Cl)ccc5[nH]c4=O)nn3)cc2)C1 [A368, 6-chloro-3-{1-[4-((S)-1-methyl-pyrrolidin-3-yloxy)-phenyl]-1H-[1,2,3]triazol-4-yl}-1H-quinolin-2-one] | 23 | 34 | – |
| CN1CC[C@@H](Oc2ccc(-n3cc(-c4cc5cc(Cl)ccc5[nH]c4=O)nn3)cc2)C1 [A369, 6-chloro-3-{1-[4-((R)-1-methyl-pyrrolidin-3-yloxy)-phenyl]-1H-[1,2,3]triazol-4-yl}-1H-quinolin-2-one] | 13 | 34 | – |
| CN1CC[C@H](Oc2ccc(-n3cc(-c4cc5cc(F)ccc5[nH]c4=O)nn3)cc2)C1 [A370, 6-fluoro-3-{1-[4-((S)-1-methyl-pyrrolidin-3-yloxy)-phenyl]-1H-[1,2,3]triazol-4-yl}-1H-quinolin-2-one] | 31 | 58 | – |
| CN1CCC(Cc2ccc(-n3cc(-c4cc5cc(F)ccc5[nH]c4=O)nn3)cc2)CC1 [A371, 6-fluoro-3-{1-[4-(1-methyl-piperidin-4-ylmethyl)-phenyl]-1H-[1,2,3]triazol-4-yl}-1H-quinolin-2-one] | 34 | 11 | – |
| Cc1ccc(NC(=O)c2ccc(CN3CCN(C)CC3)cc2)cc1Nc1nccc(-c2cccnc2)n1 [Imatinib, imatinib] | – | – | ~70 |
